Experimental data as given in ChEMBL document CHEMBL1201862, “PubChem BioAssay data set” (2004).
Active and inactive are the calls of the source.

How the values were obtained:
[1] = Vero cell cytotoxicity, cytotoxicity control for M. tuberculosis inhibitor project, purified and synthesized samples, set 3 (AID 504684); format: functional
[2] = HepG2 cell cytotoxicity, dose response, cytotoxicity control, set 3 (AID 504853); format: functional; conditions: Mycobacterium tuberculosis
[3] = THP-1 cell cytotoxicity, dose response, cytotoxicity control for non-replicating M. tuberculosis project (AID 489025); format: functional
[4] = Trypanosoma cruzi growth suppression in host cells – NIH3T3 host cells, beta-gal luminescence, confirmation (AID 2044); format: functional, cell-based;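 note: intracellular parasites grown in NIH/3T3 mouse fibroblasts as host cells; luminescent beta-galactosidase reporter signal from transgenic T. cruzi replicating inside host cells; inhibitors lower the luminescence signal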
[5] = THP-1 cell cytotoxicity, dose response, cytotoxicity control, set 3 (AID 504852); format: functional; conditions: Mycobacterium tuberculosis
[6] = microbe, parasite or virus in culture; format: functional; conditions: Mycobacterium tuberculosis
[7] = Vero cell cytotoxicity, dose response, cytotoxicity control for M. tuberculosis growth inhibitor project, Vero cells, purified and synthesized compounds, set 5 (AID 504909); format: functional; conditions: Mycobacterium tuberculosis
[8] = A Cell Based Secondary Assay to Explore Cytotoxicity in HepG2 Cells of Compounds that Modulate Mycobacterium tuberculosis in Media Containing Glycerol versus Media without Glycerol (2).; format: functional
[9] = HepG2 cell cytotoxicity, cytotoxicity control, set 4 (AID 504910); format: functional; conditions: Mycobacterium tuberculosis
[10] = NIH3T3 cell viability loss – ATP luminescence, mouse fibroblasts, counter-screen, dose response (AID 2010); format: functional, cell-based;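 note: cells exposed to compound for about 90 hours before reading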
[11] = A Cell Based Secondary Assay to Explore Cytotoxicity in THP-1 Cells of Compounds that Modulate Mycobacterium tuberculosis in Media Containing Glycerol versus Media without Glycerol (2).; format: functional
[12] = cells; format: functional
[13] = Vero E6 cell cytotoxicity, dose response, cytotoxicity control for non-replicating M. tuberculosis project, secondary assay (AID 492998); format: functional, VeroE6; conditions: Vero C1008
[14] = THP-1 cell cytotoxicity, cytotoxicity control, set 4 (AID 504911); format: functional; conditions: Mycobacterium tuberculosis
[15] = Vero cell cytotoxicity, dose response, cytotoxicity control for M. tuberculosis growth inhibitor project, Vero cells, purified and synthesized compounds, set 4 (AID 504854); format: functional; conditions: Mycobacterium tuberculosis
[16] = target: Delta-type opioid receptor (Homo sapiens, UniProt P41143); assay: Counterscreen for agonists of heterodimerization of the mu 1 (OPRM1) and delta 1 (OPRD1) opioid receptors: Luminescence-based cell-based high throughput dose response assay to identify agonists of OPRD1 homodimerization. [Related pubchem assays (depositor defined):AID504326, AID504355, AID504692, AID504904, AID504905]; format: functional
Chain of Delta-type opioid receptor (P41143 whole entry): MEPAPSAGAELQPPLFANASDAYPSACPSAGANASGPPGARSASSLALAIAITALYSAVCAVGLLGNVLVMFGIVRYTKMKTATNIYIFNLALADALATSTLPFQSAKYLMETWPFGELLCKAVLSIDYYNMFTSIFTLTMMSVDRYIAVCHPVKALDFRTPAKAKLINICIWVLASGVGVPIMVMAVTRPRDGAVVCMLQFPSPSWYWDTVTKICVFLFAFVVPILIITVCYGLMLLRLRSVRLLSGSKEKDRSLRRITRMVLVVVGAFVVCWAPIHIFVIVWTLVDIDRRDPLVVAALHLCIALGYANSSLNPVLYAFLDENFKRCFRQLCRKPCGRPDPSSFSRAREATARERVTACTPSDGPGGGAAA

[17] = target: 5-hydroxytryptamine receptor 5A (Homo sapiens, UniProt P47898); assay: Counterscreen for agonists of OPRM1-OPRD1 heterodimerization: luminescence-based cell-based high throughput dose response assay to identify agonists of 5-hydroxytryptamine (serotonin) 5A receptor (HTR5A). [Related pubchem assays (depositor defined):AID504326, AID504355, AID504692, AID504904, AID504905]; format: functional
Chain of 5-hydroxytryptamine receptor 5A (P47898 whole entry): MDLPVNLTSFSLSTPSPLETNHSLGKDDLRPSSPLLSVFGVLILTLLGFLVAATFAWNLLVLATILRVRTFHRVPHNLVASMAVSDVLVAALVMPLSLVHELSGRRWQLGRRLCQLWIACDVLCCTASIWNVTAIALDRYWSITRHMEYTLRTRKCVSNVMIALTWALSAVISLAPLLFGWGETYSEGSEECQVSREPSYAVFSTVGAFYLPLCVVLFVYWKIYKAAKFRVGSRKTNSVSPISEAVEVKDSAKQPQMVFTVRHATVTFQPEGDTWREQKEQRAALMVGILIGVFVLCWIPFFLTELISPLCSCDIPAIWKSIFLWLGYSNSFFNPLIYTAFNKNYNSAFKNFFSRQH

[18] = target: T1, Short transient receptor potential channel 4 (Mus musculus, UniProt Q9QUQ5); assay: calcium entry via TRPC4 opening agents – cell-based, HEK293 TRPC4/mu-opioid, Fluo-4 calcium, dose response (AID 434937); format: functional
T1 sequence (Q9QUQ5 whole entry): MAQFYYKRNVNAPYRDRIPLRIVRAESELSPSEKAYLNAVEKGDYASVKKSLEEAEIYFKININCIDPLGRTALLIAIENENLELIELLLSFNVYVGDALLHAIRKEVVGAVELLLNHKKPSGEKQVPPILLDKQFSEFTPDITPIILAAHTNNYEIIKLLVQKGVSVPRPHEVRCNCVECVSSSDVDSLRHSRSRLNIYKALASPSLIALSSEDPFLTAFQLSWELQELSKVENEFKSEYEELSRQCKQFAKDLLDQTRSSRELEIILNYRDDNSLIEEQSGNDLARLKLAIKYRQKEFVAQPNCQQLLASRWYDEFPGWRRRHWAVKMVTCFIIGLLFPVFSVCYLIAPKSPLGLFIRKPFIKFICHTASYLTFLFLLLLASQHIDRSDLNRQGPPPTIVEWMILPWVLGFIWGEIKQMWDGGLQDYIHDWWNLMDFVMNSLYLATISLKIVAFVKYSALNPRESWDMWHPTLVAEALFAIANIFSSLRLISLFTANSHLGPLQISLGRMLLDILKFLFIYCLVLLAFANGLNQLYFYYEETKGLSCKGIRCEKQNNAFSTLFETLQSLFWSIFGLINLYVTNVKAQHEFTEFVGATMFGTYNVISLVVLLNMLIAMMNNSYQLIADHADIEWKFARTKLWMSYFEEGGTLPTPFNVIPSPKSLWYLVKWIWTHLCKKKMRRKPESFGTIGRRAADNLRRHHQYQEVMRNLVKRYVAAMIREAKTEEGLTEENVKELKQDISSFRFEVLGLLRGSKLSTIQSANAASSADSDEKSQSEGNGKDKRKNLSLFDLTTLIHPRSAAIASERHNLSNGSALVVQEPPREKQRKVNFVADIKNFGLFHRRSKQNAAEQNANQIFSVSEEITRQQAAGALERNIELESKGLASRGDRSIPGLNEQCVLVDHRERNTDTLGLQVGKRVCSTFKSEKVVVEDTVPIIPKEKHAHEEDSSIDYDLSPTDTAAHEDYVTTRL

[19] = target: T2, High affinity choline transporter 1 (Homo sapiens, UniProt Q9GZV3); assay: human choline transporter blockers, potency – cell-based, 5-point CRC, membrane potential dye, dose response (AID 504840); format: functional
T2 sequence (Q9GZV3 whole entry): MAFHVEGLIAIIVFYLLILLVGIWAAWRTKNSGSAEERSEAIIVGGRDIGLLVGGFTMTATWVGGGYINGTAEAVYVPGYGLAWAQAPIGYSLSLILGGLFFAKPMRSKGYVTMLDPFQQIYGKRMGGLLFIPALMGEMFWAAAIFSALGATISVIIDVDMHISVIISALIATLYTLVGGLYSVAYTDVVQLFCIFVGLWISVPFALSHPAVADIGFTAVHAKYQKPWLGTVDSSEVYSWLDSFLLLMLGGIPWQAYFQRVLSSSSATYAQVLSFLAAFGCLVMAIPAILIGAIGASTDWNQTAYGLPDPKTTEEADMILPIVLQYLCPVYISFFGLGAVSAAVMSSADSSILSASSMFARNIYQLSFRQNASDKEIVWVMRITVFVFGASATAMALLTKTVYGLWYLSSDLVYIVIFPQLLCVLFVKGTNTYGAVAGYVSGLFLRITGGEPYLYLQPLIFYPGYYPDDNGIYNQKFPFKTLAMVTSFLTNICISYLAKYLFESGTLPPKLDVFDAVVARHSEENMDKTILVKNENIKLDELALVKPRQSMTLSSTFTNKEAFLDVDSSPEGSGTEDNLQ

[20] = target: T2, High affinity choline transporter 1; assay: human choline transporter blockers, potency – cell-based, 10-point CRC, membrane potential dye, dose response (AID 588401); format: functional;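 note: membrane potential dye fluorescence of choline-evoked depolarization via CHT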
[21] = target: Mu-type opioid receptor (Homo sapiens, UniProt P35372); assay: Counterscreen for agonists of heterodimerization of the mu 1 (OPRM1) and delta 1 (OPRD1) opioid receptors: Luminescence-based cell-based high throughput dose response assay to identify agonists of OPRM1 homodimerization.; format: functional;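 note: U2OS cells expressing OPRM1 and beta-arrestin as split beta-galactosidase partners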
Chain of Mu-type opioid receptor (P35372 whole entry): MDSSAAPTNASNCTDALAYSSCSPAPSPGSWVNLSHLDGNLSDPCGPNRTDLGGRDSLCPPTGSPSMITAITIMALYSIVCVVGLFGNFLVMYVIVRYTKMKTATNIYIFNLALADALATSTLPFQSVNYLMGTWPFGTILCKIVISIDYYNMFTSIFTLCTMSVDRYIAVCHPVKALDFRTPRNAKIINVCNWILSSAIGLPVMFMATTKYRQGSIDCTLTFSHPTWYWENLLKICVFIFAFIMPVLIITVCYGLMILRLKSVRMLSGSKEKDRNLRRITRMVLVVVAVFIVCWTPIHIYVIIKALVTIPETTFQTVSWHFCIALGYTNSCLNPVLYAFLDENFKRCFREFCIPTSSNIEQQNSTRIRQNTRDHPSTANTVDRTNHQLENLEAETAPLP

[22] = target: Melanin-concentrating hormone receptor 1 (Homo sapiens, UniProt Q99705); assay: Late-stage fluorescence-based counterscreen for antagonists of the G-protein coupled receptor 7 (GPR7): cell-based dose response assay to identify antagonists of the melanin-concentrating hormone receptor 1 (MCHR1) Set 6.; format: functional
Chain of Melanin-concentrating hormone receptor 1 (Q99705 whole entry): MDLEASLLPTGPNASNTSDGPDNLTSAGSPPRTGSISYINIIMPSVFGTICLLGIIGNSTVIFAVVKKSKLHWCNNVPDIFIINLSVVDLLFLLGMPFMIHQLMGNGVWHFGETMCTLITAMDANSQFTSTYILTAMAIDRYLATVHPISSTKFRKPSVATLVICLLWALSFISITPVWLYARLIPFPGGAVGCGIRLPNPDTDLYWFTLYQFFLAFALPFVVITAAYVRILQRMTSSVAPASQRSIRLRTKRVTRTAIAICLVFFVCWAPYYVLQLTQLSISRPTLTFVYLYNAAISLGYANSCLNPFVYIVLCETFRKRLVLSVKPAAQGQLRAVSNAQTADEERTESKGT

[23] = target: T3, Neuropeptides B/W receptor type 1 (Homo sapiens, UniProt P48145); assay: human NPBW1 receptor blockade, IC50 – cell-based, fluorescence, dose response, set 6, late-stage follow-up (AID 588583); format: functional
T3 sequence (P48145 whole entry): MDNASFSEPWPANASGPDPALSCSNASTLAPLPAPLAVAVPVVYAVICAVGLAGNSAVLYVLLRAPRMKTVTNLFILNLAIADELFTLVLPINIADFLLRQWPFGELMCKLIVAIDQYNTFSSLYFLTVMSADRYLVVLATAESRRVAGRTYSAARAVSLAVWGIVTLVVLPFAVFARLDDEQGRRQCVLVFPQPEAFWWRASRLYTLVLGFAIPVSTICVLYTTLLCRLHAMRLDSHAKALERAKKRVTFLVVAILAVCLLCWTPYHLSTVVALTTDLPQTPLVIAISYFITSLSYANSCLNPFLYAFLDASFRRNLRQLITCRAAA

For `Cc1[nH]c2ccccc2c1C(=O)COC(=O)c1ccc([N+](=O)[O-])s1`, the CC50 [1] was 25.7 µM (active), the CC50 [2] was 21 µM (active) and the CC50 [3] was 29.6 µM (active). The EC50 [4] was 1.75 µM (active), the CC50 [5] was 16.3 µM (active) and the CC50 [6] was 32.2 µM (active). The CC50 [7] was > 63.9 µM (active), the CC50 [8] was 20.7 µM (active) and the CC50 [9] was 30.3 µM (active). For the same compound, the EC50 [10] was > 30 µM (not active), the CC50 [11] was 25.1 µM (active) and the IC50 [12] was 3.59 µM (active). The CC50 [13] was > 20 µM (active), the CC50 [14] was 32.3 µM (active) and the CC50 [15] was 29 µM (active).
With `CCOc1ccc(S(=O)(=O)Nc2cccc(C(=O)NCC(c3ccccc3)N(C)C)c2)cc1` (stereo not drawn) the EC50 [16] was 14.1 µM (inactive), the EC50 [17] was > 92.5 µM (inactive) and the EC50 [18] was 2.99 µM (active). The IC50 [19] was 4.43 µM (active), the IC50 [20] was 3.76 µM (active) and the EC50 [21] was > 92.5 µM (inactive).
In the case of `CCc1cnn(Cc2cccc3ccccc23)c(=O)c1C(C#N)c1ccccc1` (stereo not drawn), the IC50 [22] is reported as 15.2 µM (inactive) and the IC50 [23] is reported as 15.2 µM (inactive).
